The target of data set [1] is T1, recombinant HDMX (amino acids 1-490 of SEQ ID NO:104) (Homo sapiens, UniProt O15151).
T1 construct: thioredoxin (N, cleaved yes); S tag (N, cleaved yes); hexahistidine (N, cleaved yes); made in house; host or cells: E. coli (inferred: pET32-LIC vector, handled as described for HDM2 in BL21(DE3))
T1 sequence (O15151 1-490): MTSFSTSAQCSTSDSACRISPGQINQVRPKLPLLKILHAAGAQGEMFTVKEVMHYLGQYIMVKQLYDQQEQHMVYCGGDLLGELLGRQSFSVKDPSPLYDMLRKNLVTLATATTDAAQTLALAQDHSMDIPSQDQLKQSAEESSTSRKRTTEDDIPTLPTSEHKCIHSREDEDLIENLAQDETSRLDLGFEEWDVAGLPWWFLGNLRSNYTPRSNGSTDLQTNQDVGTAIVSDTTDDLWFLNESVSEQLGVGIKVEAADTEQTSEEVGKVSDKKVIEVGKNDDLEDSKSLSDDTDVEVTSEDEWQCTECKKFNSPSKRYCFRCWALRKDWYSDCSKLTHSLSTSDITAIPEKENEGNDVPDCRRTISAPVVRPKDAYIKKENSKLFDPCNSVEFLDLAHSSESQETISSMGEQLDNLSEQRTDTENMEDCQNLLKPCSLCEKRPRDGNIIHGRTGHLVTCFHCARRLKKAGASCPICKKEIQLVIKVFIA
As to the kind of experiment: Competitive streptavidin pull-down of biotinylated peptides with 1:1 recombinant HDM2/HDMX mixture, HDMX western. The settings on record: biotinylated stapled peptide, 1:1 mixture of recombinant HDM2 and HDMX. The class given is binding.

The subject of data set [2] is OCI-AML2 cells. As to the kind of experiment: LDH release assay, OCI-AML2. The class given is cell-based. The settings on record: OCI-AML2, 90 minutes after peptide treatment, highest dosing level. As to the method: (§1) LDH release assay: To assess the release of lactate dehydrogenase (LDH) upon treatment with a structurally-stabilized peptide described herein, an LDH release assay can be used. Cultured cells, including, e.g., cancer cells and HUVEC cells, are plated in 96-well format (2x10^4 cells per well; including overnight incubation for adherent cells) and then treated with serial dilutions of structurally-stabilized peptides in a final volume of 100 µL and incubated at 37° C. for the indicated time period (e.g., 90 minutes). The plates are spun down at 1500 rpm for 5 minutes at 4° C., and 80 µL of cell culture media is transferred to a clear plate (Corning), incubated with 80 µL of LDH reagent (Roche) for 15 minutes while shaking, and absorbance is measured at 490 nm on a microplate reader (SpectraMax M5 Microplate Reader, Molecular Devices).
(§2) LDHRelease Assay: OCI-AML2 cells (1 × 10^4 cells/well) were plated in 96-well plates and treated with the indicated peptides or vehicle (0.2% DMSO). After 1.5 hours incubation at 37° C., 100 µl of cell medium was transferred to a 96-well clear plate and incubated with 100 µl of LDH reagent (Roche) for 25 minutes while shaking, and absorbance at 490 nm measured on a microplate reader (SpectraMax M5 Microplate Reader, Molecular Devices).

The next data set relates to EOL-1 cells. Nature of the data set: LDH release assay, EOL-1. Particulars: EOL-1, 90 minutes after peptide treatment, highest dosing level. The class given is cell-based. The procedure:
as §1, §2

A further data set deals with EOL-1 cancer cells. Nature of the data set: Cell viability, EOL-1. Particulars: EOL-1, 48 and 72 hours of treatment, acetylated stapled peptide.
The test system of data set [3] is OCI-AML2 cells. As to the kind of experiment: Cell viability (CellTiter-Glo), OCI-AML2. The settings on record: OCI-AML2, 48 and 72 hours of treatment, acetylated stapled peptide. Background: Cellular ATP, detected with luciferase, serves as a proxy for viable cell number.

These results are taken from patent US20230192789A1, “STRUCTURALLY-STABILIZED AND HDMX-SELECTIVE P53 PEPTIDES AND USES THEREOF” (Dana-Farber Cancer Institute, Inc., priority 2020, published 2023).

Entries after “also recorded” stand apart in the source; their conditions may differ.

`COC(=O)CC[C@@H]1NC(=O)[C@H](CCC(N)=O)NC(=O)[C@H](C)NC(=O)[C@H](Cc2c[nH]c3ccccc23)NC(=O)[C@H](Cc2ccc(O)cc2)NC(=O)[C@H](CCC(=O)O)NC(=O)[C@](C)(NC(=O)[C@H](Cc2ccccc2)NC(=O)[C@@H](NC(=O)[C@H](CC(C)C)NC(C)=O)[C@@H](C)O)CCCCCCC=CCCC[C@@](C)(C(=O)N[C@@H](CO)C(=O)N[C@@H](C)C(=O)N[C@@H](C)C(N)=O)NC1=O` [ATSP-7041 B26E(OMe), LTF8EYWAQ#XSAA]: in data set [1], the “HDMX versus HDM2 binding selectivity” value is listed as “selectivity to HDMX”. Besides, the “non-specific membrane disruption (LDH release)” value in the data set with OCI-AML2 cells [2] and with EOL-1 cells was “no non-specific membrane disruptive activity” in each case. The cancer cell cytotoxicity result in the data set with EOL-1 cancer cells and with OCI-AML2 cells [3] was “dose-responsive cancer cell cytotoxicity; also recorded: enhance killing activity” throughout.
